Assay results reported in ChEMBL document CHEMBL1201862, “PubChem BioAssay data set” (2004).
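Each compound was tested at five concentrations against cells in 96-well plates for 48 hours. GI50 marks 50% less growth.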 Active and inactive are the calls of the source. Rule as the data show it: active = GI50 up to about 1.1 µM and inactive = higher.

How the values were obtained:
Assay in all cases: growth of human tumour cells (NCI), 48 h
HCC 2998 = system: HCC 2998
OVCAR-5 = system: OVCAR-5
COLO 205 = system: COLO 205
SK-MEL-5 = system: SK-MEL-5
UO-31 = system: UO-31
A549 = system: A549
NCI-H522 = system: NCI-H522
SN12C = system: SN12C
NCI-H226 = system: NCI-H226
K562 = system: K562
OVCAR-4 = system: OVCAR-4
HCT-116 = system: HCT-116
HL-60 = system: HL-60
ACHN = system: ACHN
SR = system: SR
HCT-15 = system: HCT-15

Structure (SMILES) | GI50 (HCC 2998) | GI50 (OVCAR-5) | GI50 (COLO 205) | GI50 (SK-MEL-5) | GI50 (UO-31) | GI50 (A549) | GI50 (NCI-H522) | GI50 (SN12C) | GI50 (NCI-H226) | GI50 (K562) | GI50 (OVCAR-4) | GI50 (HCT-116) | GI50 (HL-60) | GI50 (ACHN) | GI50 (SR) | GI50 (HCT-15) [µM]
CCSC1(SCC)CCN(/C=N/C(C)(C)C)C1 | > 100 µM (inactive) | > 100 µM (inactive) | 54.7 µM (inactive) | > 100 µM (inactive) | > 100 µM (inactive) | > 100 µM (inactive) | > 100 µM (inactive) | > 100 µM (inactive) | > 100 µM (inactive) | > 100 µM (inactive) | > 100 µM (inactive) | 78 µM (inactive) | 29.7 µM (inactive) | > 100 µM (inactive) | > 100 µM (inactive) | > 100
COc1ccc2c(c1OC)C1=C(C2=O)c2cc3c(cc2CCN1)OCO3 | 32.1 µM (inactive) | 23.7 µM (inactive) | 4.08 µM (inactive) | 33.1 µM (inactive) | 48.3 µM (inactive) | 47.2 µM (inactive) |  | 6.76 µM (inactive) | 2.9 µM (inactive) | 25.1 µM (inactive) | 4.35 µM (inactive) | 32.8 µM (inactive) | 19.2 µM (inactive) | 3.42 µM (inactive) | 21 µM (inactive) | 29.4
Cc1ccc(N(C(=O)CC(=O)N2N=C(c3ccccc3)C(/N=N/c3ccc([N+](=O)[O-])cc3)C2=O)C(=O)c2ccc(Cl)cc2)cc1 (stereo not given) | 51.2 µM (inactive) | 20.5 µM (inactive) | 5.31 µM (inactive) | 16.9 µM (inactive) | 16.3 µM (inactive) | 22.7 µM (inactive) | 3.65 µM (inactive) | 18.5 µM (inactive) | 20.7 µM (inactive) | 24.7 µM (inactive) | 36.1 µM (inactive) | 8.59 µM (inactive) | 19.2 µM (inactive) | 28.4 µM (inactive) | 1.66 µM (inactive) | 13.2
COc1cc(Nc2nc3ccc(C(F)(F)F)cc3nc2-c2ccccc2)cc(OC)c1OC | 4.23 µM (inactive) | 20.7 µM (inactive) | > 10 µM (inactive) | 16.4 µM (inactive) | 10 µM (inactive) | 23.8 µM (inactive) | 27.8 µM (inactive) | 18.7 µM (inactive) | 7.66 µM (inactive) | 5.56 µM (inactive) | 51.4 µM (inactive) |  |  | 9.1 µM (inactive) | 8.3 µM (inactive) | 4.41
CC(C)CC(=O)NS(=O)(=O)c1ccccc1 | > 100 µM (inactive) | > 100 µM (inactive) | > 100 µM (inactive) |  | > 100 µM (inactive) | > 100 µM (inactive) | > 100 µM (inactive) | > 100 µM (inactive) | > 100 µM (inactive) | > 100 µM (inactive) | > 100 µM (inactive) | > 100 µM (inactive) | > 100 µM (inactive) | > 100 µM (inactive) | > 100 µM (inactive) | > 100
COC1(OC)C2(Cl)C(Cl)=C(Cl)C1(Cl)C1C2C2CC1(C(=O)O)c1ccccc12 (stereo not given) | 22.9 µM (inactive) | > 10 µM (inactive) | 23.9 µM (inactive) | 15.9 µM (inactive) | 21.9 µM (inactive) | 28.1 µM (inactive) |  | 20.5 µM (inactive) | 26.2 µM (inactive) | 15.9 µM (inactive) | 15 µM (inactive) | 17.5 µM (inactive) | 22.1 µM (inactive) | 35.7 µM (inactive) | 9.55 µM (inactive) | 23.8
CCOC(=O)C(C)(c1c(C)[nH]c2ccccc12)c1c(C)[nH]c2ccccc12 | 23.3 µM (inactive) | 19.6 µM (inactive) |  | 15.7 µM (inactive) | 12.5 µM (inactive) | 19 µM (inactive) |  |  | 13.5 µM (inactive) | 8.36 µM (inactive) | 14.9 µM (inactive) | 12.5 µM (inactive) | 12.1 µM (inactive) | 19.5 µM (inactive) |  | 15
CC(O[Si](C)(C)C)C1C=CC(C)n2c(=O)n(-c3ccccc3)c(=O)n21 (stereo not given) | > 100 µM (inactive) | > 100 µM (inactive) | > 100 µM (inactive) | > 100 µM (inactive) | > 100 µM (inactive) | > 100 µM (inactive) |  |  |  | > 100 µM (inactive) | > 100 µM (inactive) | > 100 µM (inactive) | > 100 µM (inactive) |  | > 100 µM (inactive) | > 100
CCOc1cc[n+]([C-](C#N)C#N)cc1 | > 100 µM (inactive) | > 100 µM (inactive) | > 100 µM (inactive) | > 100 µM (inactive) | > 100 µM (inactive) | > 100 µM (inactive) | > 100 µM (inactive) | > 100 µM (inactive) | > 100 µM (inactive) | > 100 µM (inactive) | > 100 µM (inactive) | > 100 µM (inactive) | > 100 µM (inactive) |  | > 100 µM (inactive) | > 100
